Structures can show the parent of a compound that is named as a salt.
Tests used:
Assay type in all cases: in vivo, rat
MK801 treated rats [1] = test: Morris Water Maze (MWM) task, MK801 animal model of schizophrenia; details: MK801 alone vs saline group, p<0.001
Procedure: Morris Water Maze (MWM): The MWM consisted of a water pool (diameter=1.8 m; depth=0.6 m) containing water at 26±1° C. A hidden platform was located 1.5 cm below the water surface. Within the testing room, only distal visuo-spatial cues were available to the rats for location of the submerged platform. A video camera was placed above the center of the pool for tracking the rat, and a video tracking system (Noldus Information Technology b.v., Wageninpen, The Netherlands) with online digital output, directly fed data into a computer and analyzed. Data were analyzed by using an Etho-Vision automated tracking system (Noldus Information Technology).
(§1) Fifteen minutes before the behavioral procedures conducted at the fourth day, the subject was injected i.p. with an 0.1 mg/kg dose of MK801 or saline, for a total volume of 1 ml per kg of body weight. Next, the subjects passed the three behavioral procedures, described in the following paragraphs.
The MWM, a hippocampal-dependent visuo-spatial learning task, was used to assess the subjects' spatial learning/memory. The ability of an animal to locate a hidden platform submerged under water by using extra-maze cues from the test environment was examined. The rats were trained in a pool 1.8 m in diameter and 0.6 m high, containing water at 26±1° C. A 10 cm square transparent platform was hidden in a constant position in the pool submerged 1 cm below the water level. Within the testing room only distal visuo-spatial cues were available to the rats for location of the submerged platform.
Rats were given four trials per day, to find the hidden platform (acquisition phase). The escape latency, i.e., the time required by the rat to find and climb onto the platform, was recorded for up to 120 sec. Each rat was allowed to remain on the platform for 30 sec, and was then removed to its home cage.
Morris Water Maze (MWM): Escape latency, the time between placing the rat in the pool until it located the platform, was measured during behavioral testing. The escape latency was analyzed by means of […] repeated measures analysis of variance (ANOVA) with a between-subjects measure of ‘group’ (treatment group) and a within-subjects measure of ‘trail’ (effects amongst groups in the four different trials).
The MWM test was then performed (see FIG. 1 for results). A significant main effect of ‘group’, ‘trail’ and a significant ‘group’×‘trails’ interaction was found in the repeated measured ANOVA for the MWM task [F(5,35)=9.699, p<0.001; F(3,33)=31.551, p<0.001; F(15,91)=1.824, p<0.05; respectively].

MK801 treated rats [2] = test: Habituation of the Acoustic Startle Response (ASR), MK801 animal model
Procedure: (§2) Acoustic Startle Response (ASR) and Pre-Pulse Inhibition (PPI): Both experimental paradigms were performed in a room that was adjacent to the laboratory facilities and the animal stall and that was not used for other experiments. The animals were tested in squad of two with startle chambers counterbalanced across the different experimental groups. Startle response and prepulse inhibition were measured using two ventilated startle chambers (SR-LAB system, San Diego Instruments, San Diego, Calif.). Each chamber consisted of a Plexiglas cylinder resting on a platform inside a sound-attenuated, ventilated chamber. A high-frequency loudspeaker inside the chamber produced both a continuous broadband background noise of 70 dB and the various acoustic stimuli. Movement inside the tube was detected by a piezoelectric accelerometer below the frame. The amplitude of the whole body startle to an acoustic pulse was defined as the average of 100 one-msec accelerometer readings collected from pulse onset. These signals were then digitized and stored by a computer. Sound levels within each test chamber were measured routinely using a sound level meter (Radio Shack) to ensure consistent presentation. The SR-LAB calibration unit was used routinely to ensure consistent stabilimeter sensitivity between test chambers and over time (Swerdlow and Geyer, 1998, Schizophrenia Bulletin, 24(2), 285-301).
as §1
(§3) ASR and PPI were measured using two startle chambers, with each chamber consisting of a Plexiglas cylinder resting on a platform inside a sound-attenuated, ventilated chamber (see also materials section). The animals were tested in pairs with startle chambers counterbalanced across the different experimental groups.
The ASR test measured the ability of the animal to habituate to repetitive loud pulses of noise. […] Movement inside the tube was detected by a piezoelectric accelerometer below the frame. The amplitude of the whole body startle to an acoustic pulse was defined as the average of 100 one-msec accelerometer readings collected from pulse onset. […]
Acoustic Startle Response (ASR): The decrease in ASR in the groups was calculated as the percent of amplitude decrease between the mean of the first five amplitude values and the mean of the last 25 amplitude values.
Percent habituation=100×[(average startle amplitude in Block 1)−(average startle amplitude in Block 5)/(average startle amplitude in Block 1)]. Results were analyzed by two-way ANOVA a between-subject measure of ‘group’ (treatment group).

MK801 treated rats [3] = test: Pre-Pulse Inhibition (PPI) paradigm, MK801 animal model
Procedure: as §2, §1, §3
PPI of the startle response was used as a measure of sensorimotor gating, with the startle chambers used to assess the ability of prepulse stimuli to block the startle response. […]
Pre-Pulse Inhibition (PPI): Startle magnitude is expressed in all the procedures as arbitrary units. Percent PPI (% PPI) was calculated as the mean startle magnitude to stimulus-alone minus the mean startle magnitude to prepulse-stimulus trials, all divided by the mean stimulus-alone trials, and multiplied by 100. The overall mean % PPI was calculated for the four prepulse intensities (72, […], 80, 84 dB). Results were analyzed by two-way ANOVA with a between-subject measure of ‘group’ (difference the treatment groups) and ‘prepulse intensity’ (72, 76, 80, 84 dB).

[4] = drug+MK801 0.1 mg/kg i.p., minocycline 35 mg/kg x 3 days pretreatment, haloperidol 0.4 mg/kg i.p.

Row | Compound | escape latency (MK801 treated rats [1]) | percent habituation of the startle response (% habituation) (MK801 treated rats [2]; MK801 alone vs saline treated rats) | percent of PPI (% PPI) (MK801 treated rats [3]; MK801 alone vs saline treatment group) | percent habituation of the startle response (% habituation) (MK801 treated rats [2]; [4]) | percent of PPI (% PPI) (MK801 treated rats [3]; [4])
1 | C[C@]12N[C@H](Cc3ccccc31)c1ccccc12 [MK801, Dizocilpine maleate] | longer escape latencies | induced a significant deficit in the habituation of ASR | induced a significant deficit in the PPI | – | –
2 | O=C(CCCN1CCC(O)(c2ccc(Cl)cc2)CC1)c1ccc(F)cc1 [haloperidol] | – | – | – | not able to prevent the deficits induced by MK801 | lack of significant effects

— US20130190275A1, “COMBINED THERAPIES OF ANTIPSYCHOTIC DRUGS AND TETRACYCLINES IN THE TREATMENT OF PSYCHIATRIC DISORDERS” (MOR RESEARCH APPLICATIONS LTD., priority 2006, published 2013)
